Non-standard residues stand in square brackets, D forms with d. Residues, ends and D or L forms follow the SMILES beside them. dPhe(4-Cl) = N[C@H](Cc1ccc(Cl)cc1)C(=O)O; d2Nal = N[C@H](Cc1ccc2ccccc2c1)C(=O)O; dCit = NC(=O)NCCC[C@@H](N)C(=O)O; d3Pal = N[C@H](Cc1cccnc1)C(=O)O
Tested on: skin explant
Assay: Inflammatory potential: cytokine assay in culture medium or matrix of injected skin explant
Format: cell-based, human
Settings: 100 μL CETROTIDE solution, cetrorelix 0.25 mg/l mL, injected into adipose tissue of explant
Description: A CETROTIDE solution of 100 μL with a cetrorelix concentration of 0.25 mg/l mL (luteinizing hormone inhibitor that competes by binding to its receptor) was injected into the adipose tissue of an explant, as described previously, using a syringe and a 12 mm long, 27 G needle. As a negative and positive control, 100 μL of a PBS solution and 100 μL of a concentrated solution of compound 48/80 (50 μg/mL, an MRGPRX2 agonist), respectively, were each injected into the adipose tissue of different explants, as described previously.
The culture medium or matrix supporting the explants are collected and an assay of cytokines is conducted using an ELISA-type methods or any other type of method intended to detect and quantify the presence of cytokines.

CC(=O)N[C@H](Cc1ccc2ccccc2c1)C(=O)N[C@H](Cc1ccc(Cl)cc1)C(=O)N[C@H](Cc1cccnc1)C(=O)N[C@@H](CO)C(=O)N[C@@H](Cc1ccc(O)cc1)C(=O)N[C@H](CCCNC(N)=O)C(=O)N[C@@H](CC(C)C)C(=O)N[C@@H](CCCNC(=N)N)C(=O)N1CCC[C@H]1C(=O)N[C@H](C)C(N)=O [cetrorelix] (Ac-[d2Nal][dPhe(4-Cl)][d3Pal]SY[dCit]LRP[dA]-NH2)
Inflammatory potential (cytokines): confirmed the inflammatory potential

— patent US20240280565A1, “EX VIVO HUMAN MODEL INTENDED FOR EVALUATING ALLERGIC OR PSEUDO-ALLERGIC INFLAMMATORY POTENTIAL” (GENOSKIN, priority 2021, published 2024)
